According to ChEMBL document CHEMBL5528016, “Design, synthesis and evaluation of novel deferasirox derivatives with high antifungal potency in vitro and in vivo” (Eur J Med Chem, 2024):
Converted amounts (≈) assume the structure as drawn. The source made the active and inactive calls. The calls are words filed in the database; no cut-off is given here.

Legend:
Candida albicans = assay: Antifungal activity against Candida albicans SC5314 assessed as reduction in fungal growth incubated for 72 hrs by broth microdilution method; format: functional
Candida parapsilosis = assay: Antifungal activity against Candida parapsilosis ATCC 22019 assessed as reduction in fungal growth incubated for 72 hrs by broth microdilution method; format: functional; conditions: Lodderomyces parapsilosis
Candida tropicalis = assay: Antifungal activity against Candida tropicalis 2718 assessed as reduction in fungal growth incubated for 72 hrs by broth microdilution method; format: functional
Nakaseomyces glabratus [1] = assay: Antifungal activity against Candida glabrata 537 assessed as reduction in fungal growth incubated for 72 hrs by broth microdilution method; format: functional
[Candida] auris = Antifungal activity against Candida auris D12 assessed as reduction in fungal growth incubated for 72 hrs by broth microdilution method; format: functional; conditions: Candidozyma auris
Nakaseomyces glabratus [2] = assay: Antifungal activity against Candida glabrata Y10-15 assessed as reduction in fungal growth incubated for 48 hrs by broth microdilution method; format: functional
Nakaseomyces glabratus [3] = assay: Antifungal activity against Candida glabrata 203 assessed as reduction in fungal growth incubated for 48 hrs by broth microdilution method; format: functional
Nakaseomyces glabratus [4] = assay: Antifungal activity against Candida glabrata 337 assessed as reduction in fungal growth incubated for 48 hrs by broth microdilution method; format: functional
Nakaseomyces glabratus [5] = assay: Antifungal activity against Candida glabrata YC1-34 assessed as reduction in fungal growth incubated for 48 hrs by broth microdilution method; format: functional
[6] = Antifungal activity against Cryptococcus gattii VGI E566 assessed as reduction in fungal growth incubated for 72 hrs by broth microdilution method; format: functional
[7] = Antifungal activity against Cryptococcus gattii VGI WM179 assessed as reduction in fungal growth incubated for 72 hrs by broth microdilution method; format: functional
[8] = Antifungal activity against Cryptococcus gattii VGI WM178 assessed as reduction in fungal growth incubated for 72 hrs by broth microdilution method; format: functional
[9] = Antifungal activity against Cryptococcus gattii VGI SCZ20024 assessed as reduction in fungal growth incubated for 72 hrs by broth microdilution method; format: functional
[10] = Antifungal activity against Cryptococcus gattii VGI SCZ20031 assessed as reduction in fungal growth incubated for 72 hrs by broth microdilution method; format: functional
Cryptococcus neoformans [11] = assay: Antifungal activity against Cryptococcus neoformans 444 assessed as reduction in fungal growth incubated for 72 hrs by broth microdilution method; format: functional
Cryptococcus neoformans [12] = assay: Antifungal activity against Cryptococcus neoformans BJ3 assessed as reduction in fungal growth incubated for 72 hrs by broth microdilution method; format: functional
Cryptococcus neoformans [13] = assay: Antifungal activity against Cryptococcus neoformans HN1 assessed as reduction in fungal growth incubated for 72 hrs by broth microdilution method; format: functional
Cryptococcus neoformans [14] = assay: Antifungal activity against Cryptococcus neoformans HN15 assessed as reduction in fungal growth incubated for 72 hrs by broth microdilution method; format: functional
HUVEC = assay: Cytotoxicity against HUVEC cells assessed as reduction in cell viability at 0.25 to 64 ug/ml incubated for 2 hrs by CCK-8 assay; format: toxicity, cell-based; conditions: human, dose 0.25-64 µg/ml
Caco-2 = assay: Cytotoxicity against human Caco-2 cells assessed as reduction in cell viability at 0.25 to 64 ug/ml incubated for 2 hrs by CCK-8 assay; format: toxicity, cell-based; conditions: caco-2, 2 h, dose 0.25-64 µg/ml
[15] = Hemolytic activity in rabbit Red blood cell at 2 ug/ml relative to control; format: toxicity, cell-based, Oryctolagus cuniculus, Erythrocyte; conditions: red blood cells, at 2 µg/mL, read-out: Activity
[16] = Hemolytic activity in rabbit Red blood cell at 64 ug/ml relative to control; format: toxicity, cell-based, Oryctolagus cuniculus, Erythrocyte; conditions: red blood cells, at 64 µg/mL, read-out: Activity
Cryptococcus neoformans [17] = assay: Antifungal activity against Cryptococcus neoformans H99 assessed as reduction in fungal growth incubated for 72 hrs by broth microdilution method; format: functional
Pichia kudriavzevii = assay: Antifungal activity against Pichia kudriavzevii 4946 assessed as reduction in fungal growth incubated for 72 hrs by broth microdilution method; format: functional
Cryptococcus neoformans [18] = assay: Antifungal activity against Cryptococcus neoformans 20 assessed as reduction in fungal growth incubated for 72 hrs by broth microdilution method; format: functional
[19] = Metabolic stability in mouse liver microsomes assessed as elimination rate constant; format: ADME, Microsome
[20] = Metabolic stability in mouse liver microsomes assessed as half life; format: ADME, Microsome
[21] = Metabolic stability in mouse liver microsomes assessed as intrinsic clearance; format: ADME, Microsome; conditions: read-out: CLH
[22] = Toxicity against ICR mouse assessed as hypertrophy at 50 mg/kg, ip administered at 24 hrs interval for 7 days by hematoxylin and eosin staining based analysis; format: organism-based; conditions: in vivo, 168 h, time 7 day
[23] = Toxicity against ICR mouse assessed as reduction in lipid droplet at 50 mg/kg, ip administered at 24 hrs interval for 7 days by hematoxylin and eosin staining based analysis; format: organism-based; conditions: in vivo, 168 h, time 7 day
[24] = Toxicity against ICR mouse assessed as enlargement of nucleus in hepatocytes at 50 mg/kg, ip administered at 24 hrs interval for 7 days by hematoxylin and eosin staining based analysis; format: organism-based; conditions: in vivo, 168 h, time 7 day
[25] = Toxicity against ICR mouse assessed as glomerular enlargement at 50 mg/kg, ip administered at 24 hrs interval for 7 days by hematoxylin and eosin staining based analysis; format: organism-based; conditions: in vivo, 168 h, time 7 day
[26] = Toxicity against ICR mouse assessed as inflammatory cell infiltration at 50 mg/kg, ip administered at 24 hrs interval for 7 days by hematoxylin and eosin staining based analysis; format: organism-based; conditions: in vivo, 168 h, time 7 day
[27] = Toxicity against ICR mouse assessed as increase in monocytes at 50 mg/kg, ip administered at 24 hrs interval for 7 days by hematoxylin and eosin staining based analysis; format: organism-based; conditions: in vivo, 168 h, time 7 day
[28] = Toxicity against ICR mouse assessed as enlargement of cytoplasm in hepatocytes at 50 mg/kg, ip administered at 24 hrs interval for 7 days by hematoxylin and eosin staining based analysis; format: organism-based; conditions: in vivo
Cryptococcus neoformans [29] = assay: Antifungal activity against Cryptococcus neoformans assessed as increase in MIC incubated for 72 hrs in presence of FeCl3 by broth microdilution method; format: functional, organism-based
Erythrocyte = assay: Hemolytic activity in rabbit Red blood cell at 64 ug/ml; format: toxicity, cell-based, Oryctolagus cuniculus; conditions: dose 64 µg/ml
[30] = Toxicity against ICR mouse assessed as reduction in lipid droplet at 20 mg/kg, ip administered at 24 hrs interval for 7 days by hematoxylin and eosin staining based analysis; format: organism-based; conditions: in vivo, 168 h, time 7 day
[31] = Nephrotoxicity in ICR mouse at 50 mg/kg, ip administered at 24 hrs interval for 7 days by hematoxylin and eosin staining based analysis; format: toxicity, organism-based; conditions: in vivo, 168 h, time 7 day
Cryptococcus neoformans [32] = assay: Antifungal activity against Cryptococcus neoformans H99 infected in C57BL/6J mouse assessed as reduction in fungal burden in brain at 2 mg/kg, ip; format: functional, organism-based
Cryptococcus neoformans [33] = assay: Antifungal activity against Cryptococcus neoformans H99 infected in C57BL/6J mouse assessed as reduction in fungal burden in lung at 2 mg/kg, ip; format: functional, organism-based
Cryptococcus neoformans [34] = assay: Antifungal activity against Cryptococcus neoformans H99 infected in C57BL/6J mouse assessed as reduction in fungal burden in brain at 10 mg/kg, ip; format: functional, organism-based
Cryptococcus neoformans [35] = assay: Antifungal activity against Cryptococcus neoformans H99 infected in C57BL/6J mouse assessed as reduction in fungal burden in lung at 10 mg/kg, ip; format: functional, organism-based

SMILES	MIC (Candida albicans) [µg/mL]	MIC (Candida parapsilosis) [µg/mL]	MIC (Candida tropicalis) [µg/mL]	MIC (Nakaseomyces glabratus [1]) [µg/mL]	MIC ([Candida] auris) [µg/mL]	MIC (Nakaseomyces glabratus [2]) [µg/mL]	MIC (Nakaseomyces glabratus [3]) [µg/mL]	MIC (Nakaseomyces glabratus [4]) [µg/mL]	MIC (Nakaseomyces glabratus [5]) [µg/mL]	MIC [6] [µg/mL]	MIC [7] [µg/mL]	MIC [8] [µg/mL]	MIC [9] [µg/mL]	MIC [10] [µg/mL]	MIC (Cryptococcus neoformans [11]) [µg/mL]	MIC (Cryptococcus neoformans [12]) [µg/mL]	MIC (Cryptococcus neoformans [13]) [µg/mL]	MIC (Cryptococcus neoformans [14]) [µg/mL]	Activity (HUVEC)	Activity (Caco-2)	other results
C[C@@H]1[C@H](O)[C@@H](C)/C=C/C=C/C=C/C=C/C=C/C=C/C=C/[C@H](O[C@@H]2O[C@H](C)[C@@H](O)[C@H](N)[C@@H]2O)C[C@@H]2O[C@](O)(C[C@@H](O)C[C@@H](O)[C@H](O)CC[C@@H](O)C[C@@H](O)CC(=O)O[C@H]1C)C[C@H](O)[C@H]2C(=O)O [AMPHOTERICIN B]	1 (≈ 1.08 µM)	0.5 (≈ 0.541 µM)	1 (≈ 1.08 µM)	< 0.125	8 (≈ 8.66 µM)	2 (≈ 2.16 µM)	16 (≈ 17.3 µM)	0.5 (≈ 0.541 µM)	1 (≈ 1.08 µM)	4 (≈ 4.33 µM)	1 (≈ 1.08 µM)	1 (≈ 1.08 µM)	1 (≈ 1.08 µM)	1 (≈ 1.08 µM)	2 (≈ 2.16 µM)	2 (≈ 2.16 µM)	1 (≈ 1.08 µM)	8 (≈ 8.66 µM)	Non-Toxic	Non-Toxic	hemolysis at 2 ug/ml [15]: > 10%; hemolysis at 64 ug/ml [16]: 100%
O=C(O)c1ccc(-n2nc(-c3ccccc3O)nc2-c2ccccc2O)cc1 [DEFERASIROX]	> 64	32 (≈ 85.7 µM)	8 (≈ 21.4 µM)	0.5 (≈ 1.34 µM)	> 64	0.5 (≈ 1.34 µM)	2 (≈ 5.36 µM)	0.5 (≈ 1.34 µM)	0.25 (≈ 0.67 µM)	8 (≈ 21.4 µM)	8 (≈ 21.4 µM)	8 (≈ 21.4 µM)	2 (≈ 5.36 µM)	2 (≈ 5.36 µM)	8 (≈ 21.4 µM)	8 (≈ 21.4 µM)	4 (≈ 10.7 µM)	2 (≈ 5.36 µM)			MIC (Cryptococcus neoformans [17]): 2 µg/mL (≈ 5.36 µM); MIC (Pichia kudriavzevii): 2 µg/mL (≈ 5.36 µM); MIC (Cryptococcus neoformans [18]): 2 µg/mL (≈ 5.36 µM); k el [19]: 5e-05 s⁻¹; half-life [20]: 3.9 h; microsomal CLint [21]: 5.94 µL/min/mg; Activity [22]: Toxic; Activity [23]: Toxic; Activity [24]: Toxic; Activity [25]: Toxic; Activity [26]: Toxic; Activity [27]: Toxic; Activity [28]: Toxic
O=C(NC1CCS(=O)(=O)C1)c1ccc(-n2nc(-c3ccccc3O)nc2-c2ccccc2O)cc1 (stereo unspecified)	4 (≈ 8.15 µM)	64 (≈ 130 µM)	2 (≈ 4.08 µM)	< 0.125	> 64	< 0.125	< 0.125	< 0.125	< 0.125	0.5 (≈ 1.02 µM)	0.5 (≈ 1.02 µM)	0.25 (≈ 0.51 µM)	0.25 (≈ 0.51 µM)	< 0.125	1 (≈ 2.04 µM)	0.5 (≈ 1.02 µM)	< 0.125	< 0.125	Non-Toxic	Non-Toxic	MIC (Cryptococcus neoformans [17]): 0.25 µg/mL (≈ 0.51 µM); MIC (Pichia kudriavzevii): 0.25 µg/mL (≈ 0.51 µM); MIC (Cryptococcus neoformans [18]): < 0.125 µg/mL; k el [19]: 8.33e-05 s⁻¹; half-life [20]: 2.13 h; microsomal CLint [21]: 10.9 µL/min/mg; Activity (Cryptococcus neoformans [29]): inactive; Activity (Erythrocyte): Non-Toxic; Activity [22]: Toxic; Activity [23]: Toxic; Activity [24]: Toxic; Activity [30]: Toxic; Activity [31]: Toxic; Activity (Cryptococcus neoformans [32]): inactive; Activity (Cryptococcus neoformans [33]): inactive; Activity (Cryptococcus neoformans [34]): Active; Activity (Cryptococcus neoformans [35]): Active; Activity [28]: Toxic
